Source: patent US6124308A, “Optically active phenyl pyrimidine derivatives as analgesic agent” (priority 1995, dated 2000)
Where a name gives a salt, the structure may show the parent alone. Read-outs that look alike come from different tables or passages of the source.

Legend:
[1] = Solubility of salts in water and pH (drug addition method); type: physicochemical; settings: water, room temperature
Description: The solubility was determined by means of the drug addition method. At room temperature the drug was added to 0.25 ml deionised water. The sample was diluted to 2 ml for pH determination. A single determination was carried out.

[2] = Melting profile / stability of salts (Mettler hotstage and DSC); type: physicochemical; settings: for Hotstage/DSC results indicates (racemisation on heating) / temperature of racemisation indicated by hotstage/DSC: 10° C./min
Description: Events on heating were monitored visually using a Mettler hotstage and a microscope. A DSC scan was then used to confirm the observed events and identify the type of event. The DSC experiments were performed using the Perkin Elmer DSC-7 system with a TAC7/DX recorder. In order to capture as many events as possible a scan irate of 10° C./min and 1-2 mg sample size was used. DSC sweeps between 40° C. and 400° C. or from and to 50° C. outside any event observed on the hot stage were carried out on one or two samples. The samples and reference (air) were placed in 50 μl aluminium pans with holes.

[3] = tested on: hind-limb extension (maximal electroshock seizure); experiment: Maximal electroshock test, rats, i.p., duration of action; type: in vivo, rat; settings: for ED50: Rattus norvegicus, ip; for ED50 (95% limits): i.p.
[4] = tested on: maximal electroshock seizure; experiment: Maximal electroshock test, rats, i.v., stronger current (200 mA); type: in vivo; settings: Rattus norvegicus, iv, 1 h
Description: A stronger current (200 mA) was used compared with that (20 mA) used in the other procedures.

[5] = tested on: veratrine-evoked glutamate release from rat brain slices; experiment: Inhibition of veratrine-evoked glutamate release; type: cell-based
[6] = biological target: T1, rat type IIA sodium channels (Rattus norvegicus, UniProt P04775); experiment: Recombinant rat type IIA sodium channels in chinese hamster ovary cells, whole-cell recording; type: cell-based; settings: for IC50: IC50 (inhibition of Na+ currents)
T1 construct: no beta subunit mentioned
T1 sequence (P04775 whole entry): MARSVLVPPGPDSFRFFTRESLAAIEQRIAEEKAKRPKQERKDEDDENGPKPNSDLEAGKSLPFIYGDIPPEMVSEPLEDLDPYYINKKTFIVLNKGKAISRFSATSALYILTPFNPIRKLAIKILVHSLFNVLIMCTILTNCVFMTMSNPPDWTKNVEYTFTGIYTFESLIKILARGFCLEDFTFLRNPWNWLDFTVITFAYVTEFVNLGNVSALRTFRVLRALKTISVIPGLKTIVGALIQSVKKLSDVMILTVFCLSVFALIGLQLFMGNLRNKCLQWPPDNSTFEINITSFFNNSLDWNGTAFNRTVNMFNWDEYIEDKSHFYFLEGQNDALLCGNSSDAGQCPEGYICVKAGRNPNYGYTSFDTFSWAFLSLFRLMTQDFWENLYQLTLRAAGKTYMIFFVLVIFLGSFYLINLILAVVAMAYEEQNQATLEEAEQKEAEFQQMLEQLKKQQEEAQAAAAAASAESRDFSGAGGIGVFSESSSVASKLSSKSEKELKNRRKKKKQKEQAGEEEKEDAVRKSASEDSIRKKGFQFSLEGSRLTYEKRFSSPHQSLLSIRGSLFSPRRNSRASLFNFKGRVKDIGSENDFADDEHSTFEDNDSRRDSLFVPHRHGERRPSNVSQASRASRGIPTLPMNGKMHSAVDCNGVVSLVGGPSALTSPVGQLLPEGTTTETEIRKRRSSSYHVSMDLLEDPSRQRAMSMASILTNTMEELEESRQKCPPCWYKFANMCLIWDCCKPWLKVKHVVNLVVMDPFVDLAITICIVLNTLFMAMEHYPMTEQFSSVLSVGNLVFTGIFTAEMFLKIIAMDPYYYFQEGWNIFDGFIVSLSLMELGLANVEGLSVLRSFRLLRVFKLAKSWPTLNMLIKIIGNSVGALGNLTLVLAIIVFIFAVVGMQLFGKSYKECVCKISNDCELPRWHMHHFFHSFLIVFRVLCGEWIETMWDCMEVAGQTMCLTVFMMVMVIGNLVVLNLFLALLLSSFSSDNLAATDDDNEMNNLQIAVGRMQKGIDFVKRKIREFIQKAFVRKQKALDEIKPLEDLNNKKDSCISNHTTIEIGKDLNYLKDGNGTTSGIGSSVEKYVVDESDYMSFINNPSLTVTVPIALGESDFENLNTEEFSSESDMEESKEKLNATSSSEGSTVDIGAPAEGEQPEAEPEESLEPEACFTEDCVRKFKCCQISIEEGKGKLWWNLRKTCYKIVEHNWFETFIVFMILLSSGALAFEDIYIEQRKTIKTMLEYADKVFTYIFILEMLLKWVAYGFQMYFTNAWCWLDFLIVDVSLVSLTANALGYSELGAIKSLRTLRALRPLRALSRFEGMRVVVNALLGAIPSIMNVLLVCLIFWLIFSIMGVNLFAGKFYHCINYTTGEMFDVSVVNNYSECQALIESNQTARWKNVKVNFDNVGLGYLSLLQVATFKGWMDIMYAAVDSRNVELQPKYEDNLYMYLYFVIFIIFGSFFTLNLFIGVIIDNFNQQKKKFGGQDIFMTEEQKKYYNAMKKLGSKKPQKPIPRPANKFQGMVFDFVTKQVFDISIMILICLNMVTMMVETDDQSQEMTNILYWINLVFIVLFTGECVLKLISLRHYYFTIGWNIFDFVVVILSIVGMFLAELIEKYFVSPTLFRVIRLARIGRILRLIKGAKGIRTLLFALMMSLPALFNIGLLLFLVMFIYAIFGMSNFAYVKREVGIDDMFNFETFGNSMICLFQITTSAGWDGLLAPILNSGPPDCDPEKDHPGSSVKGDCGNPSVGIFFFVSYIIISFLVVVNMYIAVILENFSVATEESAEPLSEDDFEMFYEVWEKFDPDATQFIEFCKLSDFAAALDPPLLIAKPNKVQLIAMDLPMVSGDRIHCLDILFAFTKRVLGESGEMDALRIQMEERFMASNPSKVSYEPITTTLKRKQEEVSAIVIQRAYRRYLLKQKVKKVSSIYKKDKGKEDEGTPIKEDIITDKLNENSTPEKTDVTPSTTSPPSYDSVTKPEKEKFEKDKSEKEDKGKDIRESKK
Description: The IC50 's at two different holding potentials (Vh) were as follows: […]

[7] = tested on: whole-cell sodium currents in cultured rat hippocampal neurones; experiment: Whole-cell sodium currents in cultured embryonic rat hippocampal neurones, patch-clamp; type: cell-based; settings: for IC50: 20 msec pulses to -10 mV from holding potential -60 mV, read-out: IC50 (reduction of peak sodium current); for reduction of peak sodium current: holding potential -60 mV
Description: (b) Cultured embryonic rat hippocampal neurones
Sodium currents were elicited by the application of 20 msec dipolarisng pulses, thereby lowering membrane potential to -10 mV from a holding potential of -60 mV.

[8] = tested on: PGE2-induced acute hyperalgesia; experiment: Effects on the development of PGE2-induced acute hyperalgesia (paw pressure); type: in vivo, rat; settings: 1 h before PGE2 (100 ng), n=5
Description: Effects on the development of PGE2 -induced acute hyperalgesia
Reaction times to paw pressure were measured 3 h after PGE2 injection. Ataxia was scored at the same time by observation of the rats placed in an arena.

[9] = tested on: maximal electroshock seizure; experiment: Maximal electroshock test, mice, different routes of administration; type: in vivo, mouse; settings: Mus musculus, mice, 1 hour, read-out: ED50 (95% limits)
[10] = biological target: T2, rat liver DHFR (Rattus norvegicus, UniProt Q920D2); experiment: Activity against dihydrofolate reductase (DHFR), spectrophotometric assay; type: biochemical; settings: at 100 μM
T2 construct: rat liver DHFR; from tissue; host or cells: rat liver
T2 sequence (Q920D2 1-187): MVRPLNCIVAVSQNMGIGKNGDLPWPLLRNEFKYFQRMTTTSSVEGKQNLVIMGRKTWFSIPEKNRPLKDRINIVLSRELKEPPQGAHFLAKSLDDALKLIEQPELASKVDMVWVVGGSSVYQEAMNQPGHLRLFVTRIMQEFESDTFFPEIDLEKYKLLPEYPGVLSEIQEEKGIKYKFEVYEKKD

[11] = Half-life in male rats; type: in vivo, rat
[12] = tested on: striatal dopamine in MPTP injected C57B1/6 mice; experiment: MPTP induced neurotoxic model, striatal dopamine levels; type: in vivo, mouse
Description: Six-week old male C57B1/6 mice (Japan SLC Co., Hamamatu) were housed ten per case in a temperature-controlled room under a 12-hours light/12-hours dark cycle with free access to food and water.
Mice received i.p. injections of the R(-) enantiomer and the S(+) enantiomer (30 mg/kg) in olive oil starting 12 hours before MPTP injection and every 12 hours for the next 5-injections. Control mice received olive oil only.
Mice receive s.c. injection of MPTP-HCl (40 mg of free base per kg; Research Biochemicals) in saline. Control mice received saline only.
HPLC with electrochemical detection was used to measure striatal levels of dopamine (J.C. Garcia': Journal of Chromatography B. 656 (1994) 77-80).
Seven days after the MPTP injection, mice ([…]) were killed and striata were dissected out, immediately frozen, and stored at -80° C. until analysis. On the day of the assay, tissue samples were sonicated in 10 vol(wt/vol) of 0.1M perchloric acid /1.9 mM sodium hydrogen sulfite containing 1.6μg/ml 3,4-dihydroxybenzylamine hydrobromide(Sigma) as an internal standard. After centrifugation (2,800× g for 10 min at room temperature) and filtration (0.5 μm; Millipore membrane filter), 10 μl of supernatant was injected onto an Inertsil ODS3 column (4.6×250 mm; GL Science, Tokyo). The mobile phase consisted of 88% 115 mM NaH2 PO4 /0.178 mM Na2 EDTA /0.92 mM 1-octanesulfonic acid (pH=2.6) solution and 12% ethanol. F low rate was 1.0 ml/min. Peaks were detected by a Shimazu electrochemical detector LECD-6A(700 mV).

Structure (SMILES): Nc1nc(N)c(-c2cccc(Cl)c2Cl)c(CF)n1 [(L)-Lactate]
- pH of the solution [1]: 3.43
- solubility of four salts [1]: less than 1 mg/ml
- Hotstage/DSC results indicates (racemisation on heating) [2]: Racemisation
- temperature of racemisation indicated by hotstage/DSC [2]: 143 °C

Structure (SMILES): Nc1nc(N)c(-c2cccc(Cl)c2Cl)c(CF)n1 [Acetate]
- pH of the solution [1]: 5.54
- solubility ([1]; read-out: solubility of four salts): < 1 mg/mL
- Hotstage/DSC results indicates (racemisation on heating) [2]: Racemisation
- temperature of racemisation indicated by hotstage/DSC [2]: ~200 °C

Structure (SMILES): Nc1nc(N)c(-c2cccc(Cl)c2Cl)c(CF)n1 [Benzenesulphonate]
- pH of the solution [1]: 2.43
- stability profile suggested by the tests [2]: could provide good stability

Structure (SMILES): Nc1nc(N)c(-c2cccc(Cl)c2Cl)c(CF)n1 [Benzoate]
- pH of the solution [1]: 4.17
- solubility of four salts [1]: less than 1 mg/ml
- Hotstage/DSC results indicates (racemisation on heating) [2]: unstable

Structure (SMILES): Nc1nc(N)c(-c2cccc(Cl)c2Cl)c(CF)n1 [Citrate]
- pH of the solution [1]: 3.99
- stability profile suggested by the tests [2]: could provide good stability

Structure (SMILES): Nc1nc(N)c(-c2cccc(Cl)c2Cl)c(CF)n1 [Fumarate]
- pH of the solution [1]: 3.04
- Hotstage/DSC results indicates (racemisation on heating) [2]: Racemisation
- temperature of racemisation indicated by hotstage/DSC [2]: 127 °C

Structure (SMILES): Nc1nc(N)c(-c2cccc(Cl)c2Cl)c(CF)n1 [HCl, R(-)-2,4-diamino-5-(2,3-dichlorophenyl)-6-fluoromethyl Pyrimidine Monohydrochloride]
- pH of the solution ([1]; Monohydrochloride): 3.61
- solubility ([1]; solubility of the equivalent base over or around 25 mg/ml): ~25 mg/mL
- Hotstage/DSC results indicates (racemisation on heating) ([2]; Monohydrochloride): Racemisation
- temperature of racemisation indicated by hotstage/DSC ([2]; Monohydrochloride): 243 °C

Structure (SMILES): Nc1nc(N)c(-c2cccc(Cl)c2Cl)c(CF)n1 [Isethionate, R(-)-2,4-diamino-5-(2,3-dichlorophenyl)-6-fluoromethyl Pyrimidine Isethionate]
- ED50 ([3]; 2 h, read-out: ED50 at 2 hrs (isethionate salt versus base), i.p., 2 hrs, calculated as the base, p<0.05): 1.8 mg/kg
- ED50 [4]: 1.5 mg/kg
- pH of the solution [1]: 1.67
- solubility of the equivalent base over or around 25 mg/ml [1]: around 25 mg/ml

Structure (SMILES): Nc1nnc(-c2cccc(Cl)c2Cl)c(N)n1 [Lamotrigine, 3,5-diamino-6-(2,3-dichlorophenyl)-1,2,4-triazine, reference compound]
- IC50 ([5]; Rattus norvegicus): 21 µM
- IC50 ([6]; Vh = -60 mV): 98 µM
- IC50 ([6]; Vh = -90 mV): 413 µM
- inhibition of Na+ currents ([6]; R(-)enantiomer 1-500 μM): inhibition of Na^+ currents in a concentration-dependent and voltage-dependent manner
- IC50 ([7]; Rattus norvegicus, Hippocampal neurone): 16 µM
- reduction of peak sodium current [7]: concentration-dependent reduction of peak sodium current
- ED50 ([8]; Rattus norvegicus, po, read-out: Analgesia ED50 (95% limits)): 34.8 mg/kg
- ED50 ([3]; rats, 0.5 hours, read-out: ED50 (95% limits)): 2.7 mg/kg
- ED50 ([3]; rats, 1 hour, read-out: ED50 (95% limits)): 3.3 mg/kg
- ED50 ([3]; rats, 2 hours, read-out: ED50 (95% limits)): 2.7 mg/kg
- ED50 ([3]; rats, 4 hours, read-out: ED50 (95% limits)): 2.3 mg/kg
- ED50 ([3]; rats, 8 hours, read-out: ED50 (95% limits)): 4.8 mg/kg
- ED50 ([3]; rats, 24 hours, read-out: ED50 (95% limits)): 7.1 mg/kg
- ED50 ([9]; ip, i.p.): 2.3 mg/kg
- ED50 ([9]; po, p.o.): 3.3 mg/kg
- ED50 ([9]; sc, s.c.): 1.8 mg/kg
- ED50 [4]: 2.5 mg/kg

Structure (SMILES): Nc1nc(N)c(-c2cccc(Cl)c2Cl)c(CF)n1 [Malonate]
- pH of the solution [1]: 3.2
- stability profile suggested by the tests [2]: could provide good stability

Structure (SMILES): Nc1nc(N)c(-c2cccc(Cl)c2Cl)c(CF)n1 [Methanesulphonate, R(-)-2,4-diamino-5-(2,3-dichlorophenyl)-6-fluoromethyl Pyrimidine Methanesulphonate]
- pH of the solution [1]: 3.33
- solubility of the equivalent base over or around 25 mg/ml [1]: around 25 mg/ml
- stability profile suggested by the tests [2]: could provide good stability
- Hotstage/DSC results indicates (racemisation on heating) [2]: Racemisation
- temperature of racemisation indicated by hotstage/DSC [2]: 240 °C

Structure (SMILES): Nc1nc(N)c(-c2cccc(Cl)c2Cl)c(CF)n1 [Naphthalenedisulphonate]
- solubility of four salts [1]: less than 1 mg/ml
- stability profile suggested by the tests [2]: could provide good stability

Structure (SMILES): Nc1nc(N)c(-c2cccc(Cl)c2Cl)c(CF)n1 [Phosphate]
- pH of the solution [1]: 2.34
- solubility of the equivalent base over or around 25 mg/ml [1]: around 25 mg/ml
- stability profile suggested by the tests [2]: could provide good stability

Structure (SMILES): Nc1nc(N)c(-c2cccc(Cl)c2Cl)c(CF)n1 [S(+)enantiomer, S(+)-2,4-diamino-5-(2,3-dichlorophenyl)-6-fluoromethyl pyrimidine, reference compound]
- inhibition of rat liver DHFR [10]: 33%
- inhibition of veratrine-evoked glutamate release ([5]; at 10 μM): 0%
- IC50 [7]: 20 µM
- reduction of peak sodium current [7]: concentration-dependent reduction of peak sodium current
- Analgesia ED50 (95% limits) ([8]; p.o.): 50.1 (39.2-70.5) mg/kg
- ED50 (95% limits) ([3]; rats, 0.5 hours, 30 min): 17.6 (11.6-26.4) mg/kg
- ED50 (95% limits) ([3]; rats, 1 hour, 60 min): 19.0 (12.7-28.5) mg/kg
- ED50 (95% limits) ([3]; rats, 2 hours, 120 min): 30.7 (20.9-45.3) mg/kg
- ED50 (95% limits) ([3]; rats, 4 hours, 240 min): 87.3 (47.7-168) mg/kg
- half-life (t1/2) [11]: 3.1 h
- % protection ([12]; 30 mg/kg i.p. 6 times, MPTP 40 mg/kg s.c.): 20.3%
- Dopamine content in the striatum ([12]; 30 mg/kg i.p. 6 times, MPTP 40 mg/kg s.c., day 7): 7.99 ± 1.55 μg/g wet tissue
- % mortality ([12]; 30 mg/kg i.p., day -1 to 7): 0%

Structure (SMILES): Nc1nc(N)c(-c2cccc(Cl)c2Cl)c(CF)n1 [Succinate]
- pH of the solution [1]: 4.09
- Hotstage/DSC results indicates (racemisation on heating) [2]: Racemisation
- temperature of racemisation indicated by hotstage/DSC [2]: 81 °C

Structure (SMILES): Nc1nc(N)c(-c2cccc(Cl)c2Cl)c(CF)n1 [Sulphate]
- pH of the solution [1]: 1.92
- solubility of the equivalent base over or around 25 mg/ml [1]: around 25 mg/ml
- stability profile suggested by the tests [2]: could provide good stability
- Hotstage/DSC results indicates (racemisation on heating) [2]: Racemisation
- temperature of racemisation indicated by hotstage/DSC [2]: 194 °C

Structure (SMILES): Nc1nc(N)c(-c2cccc(Cl)c2Cl)c(CF)n1 [Tartrate]
- pH of the solution [1]: 3.48
- stability profile suggested by the tests [2]: could provide good stability

Structure (SMILES): Nc1nc(N)c(-c2cccc(Cl)c2Cl)c(CF)n1 [Toluenesulphonate]
- stability profile suggested by the tests [2]: could provide good stability
